Test results: US8796457B2, “Compound useful for the treatment of degenerative and inflammatory diseases” (Galapagos NV, priority 2009, dated 2014)
Read-outs that look alike come from different tables or passages of the source.

Key:
[1] = Microsomal stability, rat; type: in vitro ADME; details: rat liver microsomes, 3 μM compound, 37° C.
Experimental: (§1) A 10 mM stock solution of compound in DMSO was diluted 1000 fold in a 182 mM phosphate buffer pH7.4 in a 96 deep well plate (Greiner, Cat no. 780285) and pre-incubated at 37° C.
(§2) 40 μL of deionised water was added to a well of a polypropylene Matrix 2D barcode labelled storage tube (Thermo Scientific) and pre-incubated at 37° C.
(§3) A Glucose-6-phophate-dehydrogenase (G6PDH) working stock solution was prepared in 182 mM phosphate buffer pH7.4 and placed on ice before use. A co-factor containing MgCl2, glucose-6-phosphate and NADP+ was prepared in deionised water and placed on ice before use. […]
(§4) These plates were sealed with sealing mats (MA96RD-04S) of www.kinesis.co.uk and samples were measured at room temperature on LCMS (ZQ 1525 from Waters) under optimized conditions using Quanoptimize to determine the appropriate mass of the parent molecule.
(§5) The samples were analyzed on LCMS with a flow rate of 1 mL/min. […]
(§6) Peak area from the parent compound at time 0 was considered to be 100% remaining. The percentage remaining after 1 hour incubation was calculated from time 0 and was calculated as the percentage remaining. […]
(§7) The data on microsomal stability are expressed as a percentage of the total amount of compound remaining after 60 minutes.

[2] = target: Recombinant human JAK3 catalytic domain (Homo sapiens (Human), UniProt P52333); test: JAK3 inhibition assay; type: biochemical; details: average ± standard error of the mean; 1 μM ATP
Experimental: Recombinant human JAK3 catalytic domain (amino acids 781-1124; catalog number PV3855) was purchased from Invitrogen. 0.025 mU of JAK3 was incubated with 2.5 μg polyGT substrate (Sigma catalog number P0275) in kinase reaction buffer (25 mM Tris pH 7.5, 0.5 mM EGTA, 0.5 mM Na3VO4, 5 mM b-glycerolphosphate, 0.01% Triton X-100, 1 μM non-radioactive ATP, 0.25 μCi ^33P-gamma-ATP (GE Healthcare, catalog number AH9968) final concentrations) with or without 5 μL containing test compound or vehicle (DMSO, 1% final concentration), in a total volume of 25 μL, in a polypropylene 96-well plate (Greiner, V-bottom). After 105 min at 30° C., reactions were stopped by adding of 25 μL/well of 150 mM phosphoric acid. […] 40 μL/well of Microscint-20 was added, the top of the plates was sealed and readout was performed using the Topcount (Perkin Elmer). Kinase activity was calculated by subtracting counts per minute (cpm) obtained in the presence of a positive control inhibitor (10 μM staurosporine) from cpm obtained in the presence of vehicle. The ability of a test compound to inhibit this activity was determined as: Percentage inhibition=((cpm determined for sample with test compound present−cpm determined for sample with positive control inhibitor) divided by (cpm determined in the presence of vehicle−cpm determined for sample with positive control inhibitor))*100. […]

TNF release = test: Septic shock model (LPS induced TNF release); type: in vivo, mouse; details: 30 mg/kg po, LPS ip, statistically significant
Experimental: Injection of lipopolysaccharide (LPS) induces a rapid release of soluble tumour necrosis factor (TNF-alpha) into the periphery. This model is used to analyse prospective blockers of TNF release in vivo.
Six BALB/cJ female mice (20 g) per group are treated at the intended dosing once, po. Thirty minutes later, LPS (15 μg/kg; E. Coli serotype 0111:B4) is injected ip. Ninety minutes later, mice are euthanized and blood is collected. Circulating TNF alpha levels are determined using commercially available ELISA kits. Dexamethasone (5 μg/kg) is used as a reference anti-inflammatory compound. Selected compounds are tested at one or multiple doses, e.g. 3 and/or 10 and/or 30 mg/kg, po.

[3] = Microsomal stability, human; type: in vitro ADME; details: human liver microsomes, 3 μM compound, 37° C.
Experimental: as §1, §2, §3, §4, §5, §6, §7

[4] = system: JAK1 dependent pathway (IFNα induced pSTAT1) in human whole blood; test: Whole blood assay, IFNα stimulation, Phospho-STAT1 ELISA; type: cell-based; details: for IC50: Homo sapiens, 6 blood donors, ± SEM, read-out: pIC50 for inhibiting the INFα induced increase of pSTAT1 levels (converted)
Experimental: The pH of the buffer was 7.3.
Proteinase inhibitors were added to the buffer before use.
The stock solution was stored at −20° C.
Human blood was collected in heparinized tubes. The blood was divided in aliquots of 392 μL.
The samples were incubated on ice for 15 min.
The cellular extracts were thawed on ice. […] The strips were incubated overnight at 4° C.
Absorbance was measured at 450 nm.

Chain of Recombinant human JAK3 catalytic domain (P52333 781-1124): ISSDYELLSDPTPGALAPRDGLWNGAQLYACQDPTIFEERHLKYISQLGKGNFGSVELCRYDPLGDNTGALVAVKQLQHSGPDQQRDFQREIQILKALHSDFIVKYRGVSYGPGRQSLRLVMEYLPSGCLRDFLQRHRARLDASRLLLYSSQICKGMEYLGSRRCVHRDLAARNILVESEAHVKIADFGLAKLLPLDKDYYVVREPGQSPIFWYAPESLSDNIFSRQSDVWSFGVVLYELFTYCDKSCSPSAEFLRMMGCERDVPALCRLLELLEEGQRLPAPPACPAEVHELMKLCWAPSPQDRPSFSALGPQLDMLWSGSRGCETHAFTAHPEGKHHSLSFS

Compound: CC1(C)CN(C(=O)c2ccc(-c3cccc4nc(NC(=O)C5CC5)nn34)cc2)C1 [Compound 1, Cyclopropanecarboxylic acid{5-[4-(3,3-dimethyl-azetidine-1-carbonyl)-phenyl]-[1,2,4]triazolo[1,5-a]pyridin-2-yl}-amide]
- Microsomal stability, percentage of compound remaining after 60 minutes, Rat [1]: 76-100%
- IC50 [2]: 408 ± 62 nM
- reduction in the TNF release (TNF release): > 50%
- Microsomal stability, percentage of compound remaining after 60 minutes, Human [3]: 76-100%
- IC50 ([4]; additional data analysis protocol (R2 > 0.8, hill slope < 3)): 617 nM
- IC50 ([4]; human whole blood): 479 nM
- selectivity for the JAK1 pathway versus the JAK2 pathway ([4]; IFNα pSTAT1 vs GM-CSF IL-8, human whole blood): 28 fold
- selectivity for the JAK1 pathway versus the JAK2 pathway ([4]; additional data analysis protocol, IFNα pSTAT1 vs GM-CSF IL-8): 17.6 fold
